Measured values as given in the NIST ThermoML archive (doi:10.1021/je900722m).

Test: xn = mol fraction of the nth substance listed
Settings: 101 kPa, Liquid

CCC(C)O (stereo unspecified) [butan-2-ol] + CCCCO
Settings | mass density, 303.15 K [kg/m3] | mass density, 308.15 K [kg/m3] | mass density, 313.15 K [kg/m3] | mass density, 318.15 K [kg/m3] | mass density, 323.15 K [kg/m3] | viscosity, 303.15 K [mPa·s] | viscosity, 308.15 K [mPa·s] | viscosity, 313.15 K [mPa·s] | viscosity, 318.15 K [mPa·s] | viscosity, 323.15 K [mPa·s]
x2 = 0.1008 | 798.816 | 794.588 | 790.266 | 785.851 | 781.329 | 3.157 | 2.679 | 2.312 | 1.982 | 1.723
x2 = 0.2005 | 799.24 | 795.059 | 790.801 | 786.455 | 782.01 | 3.08 | 2.65 | 2.299 | 1.981 | 1.737
x2 = 0.3002 | 799.646 | 795.516 | 791.313 | 787.036 | 782.667 | 3.027 | 2.626 | 2.288 | 1.981 | 1.75
x2 = 0.4006 | 800.045 | 795.957 | 791.795 | 787.575 | 783.274 | 2.987 | 2.609 | 2.283 | 1.982 | 1.763
x2 = 0.5004 | 800.435 | 796.396 | 792.279 | 788.113 | 783.873 | 2.956 | 2.595 | 2.278 | 1.986 | –
x2 = 0.6005 | 800.827 | 796.828 | 792.762 | 788.64 | – | 2.932 | 2.583 | 2.275 | 1.992 | –
x2 = 0.6999 | 801.204 | 797.242 | 793.224 | 789.157 | – | 2.912 | 2.57 | 2.272 | 1.999 | –
x2 = 0.7989 | 801.568 | 797.635 | 793.655 | 789.625 | – | 2.894 | 2.557 | 2.268 | 2.007 | –
x2 = 0.8988 | 801.909 | 798.014 | 794.069 | 790.08 | – | 2.875 | 2.545 | 2.264 | 2.013 | –
